These results are taken from patent US20230340498A1, “COMPOSITIONS AND METHODS FOR INDUCIBLE ALTERNATIVE SPLICING REGULATION OF GENE EXPRESSION” (The Children's Hospital of Philadelphia, priority 2020, published 2023).

The assay deals with HEK293 cells. Briefly: RNA-Seq of HEK293 cells treated with LMI070 for LMI070-induced splicing events. The class given is cell-based, Human. Particulars: HEK293, 25 nM LMI070 for 12 hours. The protocol:
Tables 1A-1E provide the genomic locations of candidate LMI070-induced exons and the frequency of events from RNA-Seq datasets. Summarized here are the differentially expressed candidate LMI070-induced splicing positions as identified by RNA-Seq of HEK293 cells treated with either DMSO or LMI070 (25 nM). All candidates shown were manually selected from a bioinformatically generated list of top hits based on their suitability for construction of an exon switching genomic minigene, their exclusivity to the LMI070 condition, and their minimal to undetectable levels in DMSO treated cells. The top 25 rows of each table indicate hits observed exclusively upon LMI070 exposure. The following 22 rows of each table indicate candidates where splicing was enriched but not totally exclusive to LMI070 treatment.
Table 1A provides the GRCh38 genomic positions used to create the splice event-containing genomic minigene, the GRCh38 genomic positions of the pseudoexon created by LMI070-induced splicing, the number of exon-exon junction spanning reads observed with DMSO treatment, and the number of exon-exon junctions spanning reads observed with LMI070 treatment. […]
RNA-Seq Methods. […] Splice junction output by STAR were quantified using a custom R script designed to identify splicing events unique to LMI070 treatment. Top ranking LMI070-exclusive splice events were manually assessed for their applicability to function as a splicing switch. […] Candidate splice events were visually evaluated using the Sashimi plot function available in IGV (Thorvaldsdottir et al., 2013; Katz et al., 2015).
Next, exons that were more sensitive to LMI070 to reduce non-target splice events were sought out. […] Reads obtained from 4 control and 4 LMI070 treated samples were aligned to the genome using the STAR aligner (Dobin & Gingeras, 2015) and splicing events exclusive to the LMI070 treated samples identified (FIGS. 2A and 2F-2N; Table 1). […]

Regarding `CC1(C)CC(Oc2ccc(-c3ccc(-c4cn[nH]c4)cc3O)nn2)CC(C)(C)N1` [LMI070, 5-(1H-Pyrazol-4-yl)-2-(6-((2,2,6,6-tetramethylpiperidin-4-yl)oxy)pyridazin-3-yl)phenol], the “events evident in all treated and in one of the control untreated samples” value is given as 22; the “events found exclusively and in all LMI070 treated samples” value was determined as 23. Moreover, the “novel splicing events identified following LMI070 treatment” value (threshold average greater than 5 novel intron splicing events) is recorded as 45.
